Results taken from patent US20240165114A1, “TREATMENT OF DIABETIC NEPHROPATHY WITH AN sGC STIMULATOR” (Cyclerion Therapeutics, Inc., priority 2019, published 2024).

Legend:
Assay type in all cases: in vivo, human
[1] = test system: adult patients with type 2 diabetes mellitus with albuminuria; test: Phase 2 study: hemoglobin A1c; conditions: for Hemoglobin A1c: Between PRL and PBO Group LS Mean Change from Baseline at week 12 / Hemoglobin A1c: Within Group LS Mean Change from Baseline at Week 12: ITT
Excerpt: (§1) Other secondary objectives of this clinical study included the evaluation of the pharmacokinetic (PK) concentrations of oral IW-1973 and the exploration of the effect of oral IW-1973 on hemodynamics and metabolic effects when administered daily for approximately 12 weeks to adult patients with type 2 diabetes mellitus with albuminuria (i.e., DN patients) who were on a stable regimen of renin-angiotensin system inhibitors (RAAS inhibitors, i.e., ACEi's and ARBs).
(§2) Clinical laboratory assessments obtained during the performance of this clinical trial included: complete blood count, serum chemistry panel, urinalysis, coagulation panel, estimated glomerular filtration rate (eGFR; determined by the Chronic Kidney Disease Epidemiology Collaboration [CKD-EPI] creatinine equation), hemoglobin A1c (HbA1C), Homeostatic Model Assessment to estimate insulin resistance (HOMA-IR), platelet function assessment (using VerifyNow®, at a subset of sites), urine pregnancy, and screens for hepatitis, human immunodeficiency virus, and drugs of abuse.
(§3) This multicenter, randomized, double-blind, placebo-controlled, parallel-group study evaluated 2 dose levels of IW-1973 compared with placebo. The study population consisted of adult patients with type 2 diabetes mellitus, albuminuria, and impaired renal function. Patients had to have been taking antihyperglycemic medications for at least 12 weeks with their regimen being stable (ie, drug and dose) for at least 28 days before the Randomization Visit. Additionally, patients had to have been on a stable regimen of angiotensin-converting enzyme inhibitor (ACEi) or an angiotensin receptor blocker (ARB), for at least 28 days before the Randomization Visit. For more details, see Inclusion Criteria below. A total of 156 patients (approximately 50 patients per arm) were stratified by baseline estimated glomerular filtration rate (eGFR) into three groups: eGFR 30 to 45, >45 to 60, and >60 to 75 mL/min/1.73 m^2) and randomized approximately 1:1:1 to total daily 20 mg IW-1973, 40 mg IW-1973, or placebo.

[2] = Plasma IW-1973 concentrations / population PK in the Phase 2 study
Procedure: Plasma IW-1973 concentrations were measured for pharmacokinetic determinations.
The population PK approach based on sparse PK data was used to determine exposure (AUC) and oral clearance (CL/F) of IW-1973. Influence of patient demographics (eg, age, race) on exposure was evaluated. In addition, exposure-effect (such as hemodynamic, exploratory biomarkers, efficacy, and safety parameters) relationships were explored. Effects of concomitant medications on IW-1973 PK was also evaluated.
Praliciguat concentrations were measured using a validated liquid chromatography tandem mass spectrometry method, as previously described (Hanrahan J P, et al. “A Randomized, Placebo-Controlled, Multiple-Ascending-Dose Study to Assess the Safety, Tolerability, Pharmacokinetics, and Pharmacodynamics of the Soluble Guanylate Cyclase Stimulator Praliciguat in Healthy Subjects” Clin Pharmacol Drug Dev. 2019, 8(5):564-575). Population PK analysis was performed using NONMEM 7.4 (Icon Development Solutions, Ellicott City, MD) to update an existing model established with data from three Phase 1 studies in healthy subjects and two phase 2a studies in patients with stable type 2 diabetes mellitus (T2D) and hypertension. The influence of patient demographics, renal function and concomitant medications on exposure were evaluated, and estimates of exposure (AUC) and oral clearance (CL/F) were determined.

[3] = test system: adult patients with type 2 diabetes mellitus with albuminuria; test: Phase 2 study: serum cholesterol; conditions: for Serum Cholesterol: Between PRL and PBO Group LS Mean Change from Baseline at week 12 / Serum Cholesterol: Within Group LS Mean Change from Baseline at Week 12: ITT; for Cholesterol: Placebo-Adjusted LS Mean Change from Baseline at Week 12 / Cholesterol: Within Group LS Mean Change from Baseline at Week 12: mITT Population
Excerpt: as §1, §2, §3

[4] = test system: adult patients with type 2 diabetes mellitus with albuminuria; test: Phase 2 study: fasting plasma glucose; conditions: ITT
Excerpt: as §1, §2, §3

[5] = test system: adult patients with type 2 diabetes mellitus with albuminuria; test: Phase 2 study: serum LDL cholesterol; conditions: for Serum LDL Cholesterol: Between PRL and PBO Group LS Mean Change from Baseline at week 12 / Serum LDL Cholesterol: Within Group LS Mean Change from Baseline at Week 12: ITT; for LDL Cholesterol: Placebo Adjusted LS Mean Change from Baseline at Week 12 / LDL Cholesterol: Within Group LS Mean Change from Baseline at Week 12: mITT Population
Excerpt: as §1, §2, §3

Compound: OC(CNc1nc(-c2cc(-c3ccon3)n(Cc3ccccc3F)n2)ncc1F)(C(F)(F)F)C(F)(F)F [Compound I, praliciguat]
- decrease in mean HbA1c levels compared to placebo ([1]; 12 weeks of treatment): ~0.3%
- Hemoglobin A1c: Between PRL and PBO Group LS Mean Change from Baseline at week 12 ([1]; PRL 20 mg): −0.23%
- Hemoglobin A1c: Within Group LS Mean Change from Baseline at Week 12 ([1]; PRL 20 mg): −0.26%
- Hemoglobin A1c: Between PRL and PBO Group LS Mean Change from Baseline at week 12 ([1]; PRL 40 mg): −0.30%
- Hemoglobin A1c: Within Group LS Mean Change from Baseline at Week 12 ([1]; PRL 40 mg): −0.38%
- Hemoglobin A1c: Between PRL and PBO Group LS Mean Change from Baseline at week 12 ([1]; PRL Combined): −0.27%
- Hemoglobin A1c: Within Group LS Mean Change from Baseline at Week 12 ([1]; PRL Combined): −0.34%
- plasma exposure versus dose ([2]; 20 mg and 40 mg total daily oral dose): dose-proportional exposure
- time to steady state of plasma concentrations ([2]; daily oral dosing): ≤ 4 weeks
- route of elimination (renal excretion) ([2]; metabolized in the liver): negligible renal excretion
- Serum Cholesterol: Between PRL and PBO Group LS Mean Change from Baseline at week 12 ([3]; PRL 20 mg): -12.1 mg/dL
- Serum Cholesterol: Within Group LS Mean Change from Baseline at Week 12 ([3]; PRL 20 mg): -7.8 mg/dL
- Serum Cholesterol: Between PRL and PBO Group LS Mean Change from Baseline at week 12 ([3]; PRL 40 mg): -8.1 mg/dL
- Serum Cholesterol: Within Group LS Mean Change from Baseline at Week 12 ([3]; PRL 40 mg): -3.7 mg/dL
- Serum Cholesterol: Between PRL and PBO Group LS Mean Change from Baseline at week 12 ([3]; PRL Combined): -10.1 mg/dL
- Serum Cholesterol: Within Group LS Mean Change from Baseline at Week 12 ([3]; PRL Combined): -5.8 mg/dL
- Cholesterol: Placebo-Adjusted LS Mean Change from Baseline at Week 12 ([3]; PRL 20 mg): -13.1 mg/dL
- Cholesterol: Within Group LS Mean Change from Baseline at Week 12 ([3]; PRL 20 mg): -10.6 mg/dL
- Cholesterol: Placebo-Adjusted LS Mean Change from Baseline at Week 12 ([3]; PRL 40 mg): -7.5 mg/dL
- Cholesterol: Within Group LS Mean Change from Baseline at Week 12 ([3]; PRL 40 mg): -4.8 mg/dL
- Cholesterol: Placebo-Adjusted LS Mean Change from Baseline at Week 12 ([3]; PRL Combined): -10.2 mg/dL
- Cholesterol: Within Group LS Mean Change from Baseline at Week 12 ([3]; PRL Combined): -7.7 mg/dL
- Fasting Plasma Glucose: Between PRL and PBO Group LS Mean Change from Baseline at week 12 ([4]; PRL 20 mg): 2.3 mg/dL
- Fasting Plasma Glucose: Within Group LS Mean Change from Baseline at Week 12 ([4]; PRL 20 mg): 6.09 mg/dL
- Fasting Plasma Glucose: Between PRL and PBO Group LS Mean Change from Baseline at week 12 ([4]; PRL 40 mg): -18.2 mg/dL
- Fasting Plasma Glucose: Within Group LS Mean Change from Baseline at Week 12 ([4]; PRL 40 mg): -14.4 mg/dL
- Fasting Plasma Glucose: Between PRL and PBO Group LS Mean Change from Baseline at week 12 ([4]; PRL Combined): -7.9 mg/dL
- Fasting Plasma Glucose: Within Group LS Mean Change from Baseline at Week 12 ([4]; PRL Combined): -4.1 mg/dL
- Serum LDL Cholesterol: Between PRL and PBO Group LS Mean Change from Baseline at week 12 ([5]; PRL 20 mg): -8.9 mg/dL
- Serum LDL Cholesterol: Within Group LS Mean Change from Baseline at Week 12 ([5]; PRL 20 mg): -6.0 mg/dL
- Serum LDL Cholesterol: Between PRL and PBO Group LS Mean Change from Baseline at week 12 ([5]; PRL 40 mg): -6.2 mg/dL
- Serum LDL Cholesterol: Within Group LS Mean Change from Baseline at Week 12 ([5]; PRL 40 mg): -3.3 mg/dL
- Serum LDL Cholesterol: Between PRL and PBO Group LS Mean Change from Baseline at week 12 ([5]; PRL Combined): -7.5 mg/dL
- Serum LDL Cholesterol: Within Group LS Mean Change from Baseline at Week 12 ([5]; PRL Combined): -4.6 mg/dL
- LDL Cholesterol: Placebo Adjusted LS Mean Change from Baseline at Week 12 ([5]; PRL 20 mg): -13.4 mg/dL
- LDL Cholesterol: Within Group LS Mean Change from Baseline at Week 12 ([5]; PRL 20 mg): -8.8 mg/dL
- LDL Cholesterol: Placebo Adjusted LS Mean Change from Baseline at Week 12 ([5]; PRL 40 mg): -9.5 mg/dL
- LDL Cholesterol: Within Group LS Mean Change from Baseline at Week 12 ([5]; PRL 40 mg): -4.9 mg/dL
- LDL Cholesterol: Placebo Adjusted LS Mean Change from Baseline at Week 12 ([5]; PRL Combined): -11.4 mg/dL
- LDL Cholesterol: Within Group LS Mean Change from Baseline at Week 12 ([5]; PRL Combined): -6.9 mg/dL
